Assay results from US20220273660A1, “MEK INHIBITOR FOR TREATMENT OF STROKE” (EDVINCE AB, priority 2019, published 2022).
“Also recorded” adds a separate entry of the source.

Experiments:
Solubility (statement) = type: physicochemical
[1] = tested on: rat subarachnoid haemorrhage model; assay: Rat SAH model, intraperitoneal treatment, myograph of basilar arteries; type: in vivo; conditions: SAH + i.p. treatment at 6 and 24 hours
Protocol: (§1) For contractility measurements, both incubated BAs (ex vivo) and BAs after surgical procedure (in vivo) were cut into segments and mounted on a pair of metal wires (40 μm) in a myograph bath. The arteries from OC were mounted the same way after 48 hours in media. One wire was attached to a micro-meter screw which allows for fine adjustments of the distance between the wires, controlling the vascular tone.
The segments were equilibrated in physiological buffer aerated with 95% O2/5% CO2, pH of 7.4, temperature set at 37° C. and the wires were separated for isometric pretension at 2 Nm^−1. The arterial segments were exposed two or three times with 60 mM K^+, by exchanging the buffer with a 60 mM K^+ buffer solution. To maintain equal osmolarity, a proportional amount of Na^+ had been removed from the buffer. An absolute cut-off was set at 2.0 mN K^+max for inclusion of arterial segments from rats that underwent the surgical procedure. Endothelium function was evaluated with the addition of 5-HT (3.10^−7 M) followed by carbachol (10^−5 M). For arteries from the OC the protocol was as followed: first a cumulative concentration-response curve to sarafotoxin 6C (S6c, 10^−14-10^−7 M), followed by a concentration-response curve to endothelin-1 (ET-1, 10^−14-10^−7 M). […]

ETB receptor = assay: Intracellular flow cytometry of SMC expressing ETB receptor after SAH; type: in vivo, rat; conditions: i.p. at 6 and 24 h post-SAH
Protocol: The MCAs, BA and the circle of Willis were pooled from one rat. The VSMCs of the cerebral arteries was isolated by a novel technique advanced by the present inventors based on two other protocols (Navone et al, 2013, Nat Protoc; van Beijnum et al, 2008, Nat Protoc). The tissue were disrupted mechanically (scalpel) and then subjected to enzymatic digestion with highly purified Collagenase I and Collagenase II. Isolated cell suspensions were fixed with 4% paraformaldehyde for 30 minutes, washed with PBS and thereafter permeabilized with 0.25% TritonX-100. Cells were resuspended in blocking buffer containing 5% donkey serum and double-stained overnight at 4° C. with primary goat anti-SM22α (1:100, Abcam) or goat isotope control IgG (5 μg/mL, Abcam) and primary antibody rabbit anti-ETB (1:100, Abcam) or rabbit isotope control IgG (10 μg/mL, Abcam) in the same blocking buffer. […] Finally, cell suspensions were diluted to a final volume of 0.5 mL with PBS before analyzed by fluorescent-activated cell sorting (FACS) on the BD FACSVerse machine (BD Biosciences, USA). Fluorescence was induced with a 640 nm red laser. The ratio of SM22α-positive cells expressing ETB was calculated in each sample. Data was analyzed by the BD FACSuite Software.

rat basilar arteries = assay: 48 h organ culture of basilar artery, endothelium function / vasodilation (carbachol, SNP, CGRP); type: cell-based; conditions: 1 μM inhibitor
Protocol: Rats were sedated with O2/CO2 (30/70%) and sacrificed by decapitation. […] The basilar artery (BA) was carefully dissected from the brain in a physiological buffer solution followed by either OC (naïve animals) or directly mounted in a wire myograph (arteries from rats which has undergone surgical procedures). Segments were incubated for 48 hours at 37° C. in humidified 5% CO2/O2 in DMEM supplemented with streptomycin and penicillin with inhibitors or vehicle (DMSO). Culture media was changed after 24 hours.
as §1
The arterial segments were exposed two or three times with 60 mM K^+, by exchanging the buffer with a 60 mM K^+ buffer solution. To maintain equal osmolarity, a proportional amount of Na^+ had been removed from the buffer. An absolute cut-off was set at 2.0 mN K^+max for inclusion of arterial segments from rats that underwent the surgical procedure. Endothelium function was evaluated with the addition of 5-HT (3.10^−7 M) followed by carbachol (10^−5 M). For arteries from the OC the protocol was as followed: first a cumulative concentration-response curve to sarafotoxin 6C (S6c, 10^−14-10^−7 M), followed by a concentration-response curve to endothelin-1 (ET-1, 10^−14-10^−7 M). At peak ET-1 (10^−7 M), the buffer was changed to a Ca^2+-free buffer containing 10^−7 M ET-1 and nimodipine (L-type of voltage dependent Ca^2+ channel entry blocker, 10^−7 M). […] When vasodilation was investigated arteries was precontracted with U46619 (1.10^−7-3.10^−7 M) or K^+ (41 mM) and cumulative concentration-response curves was performed by adding calcitonin gene-related peptide (CGRP, 10^−12-10^−7 M), carbachol (10^−10-10^−5 M) or SNP (10^−11-10^−4 M).

## CC(=O)Nc1cccc(-n2c(=O)n(C3CC3)c(=O)c3c(Nc4ccc(I)cc4F)n(C)c(=O)c(C)c32)c1 [trametinib]
Solubility (statement)
  solubility: excellent solubility
[1]
  ET-1 contractility (at 10^-9.5 M) vs SAH+i.p. vehicle: significant decrease in contractility
  contractile response of BAs to 60 mM K+: 3.03±0.19 Nm-1
ETB receptor
  increased ETB receptor protein expression in SMC: not significant abolished
Rat basilar arteries; 48 h OC
  Emax following NO donor sodium nitroprusside (SNP): significant differences in the Emax
  response to CGRP: No differences
Rat basilar arteries; 48 h OC, precontracted with U46619 or K+
  vasodilation in response to carbachol (10^-10-10^-5 M): improved vasodilation
Rat basilar arteries; 48 h organ culture
  endothelium function (10-5 M carbachol on arteries precontracted with 5-HT) vs DMSO: significant better endothelium function; also recorded: significant increase
